Measurements taken from patent US5451522A, “Genes encoding and method of expressing an enzyme: phthalyl amidase” (priority 1994, dated 1995).
Entries after “also recorded” stand apart in the source; their conditions may differ. Like-named read-outs stand apart in the source and are kept apart here. Each block holds one molecule with its values, some of them ahead of it.

What was measured:
phthalyl amidase [1] = target: T1, phthalyl amidase (Xanthobacter agilis, UniProt P0C2Y0); test: Influence of effectors and organic solvents on enzyme activity; type: biochemical; conditions: for remaining activity at 1 % / remaining activity at 5 % / remaining activity at 10 %: 20 min, read-out: % Residual enzyme activity
T1 construct: 42-aa signal peptide removed
T1 sequence (P0C2Y0 2-453): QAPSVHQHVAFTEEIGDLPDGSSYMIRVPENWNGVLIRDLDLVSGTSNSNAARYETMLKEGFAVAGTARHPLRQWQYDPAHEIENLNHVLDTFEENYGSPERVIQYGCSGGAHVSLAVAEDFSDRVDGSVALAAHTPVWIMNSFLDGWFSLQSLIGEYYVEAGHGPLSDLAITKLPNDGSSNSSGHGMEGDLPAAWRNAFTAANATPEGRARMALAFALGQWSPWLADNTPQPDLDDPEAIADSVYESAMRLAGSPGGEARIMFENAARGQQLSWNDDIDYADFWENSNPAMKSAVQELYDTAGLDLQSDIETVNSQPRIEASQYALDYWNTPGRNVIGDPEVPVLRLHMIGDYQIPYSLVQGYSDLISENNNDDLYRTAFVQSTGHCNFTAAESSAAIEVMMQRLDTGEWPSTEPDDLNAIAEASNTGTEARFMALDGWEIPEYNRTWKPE
Procedure: A typical reaction mixture consisted of 1 ml total volume and contained 0.1 mM III, 0.1 μM phthalyl amidase in 50 mM potassium phosphate buffer (pH 5.5-9.0) at 32° C. for 20 minutes. The reactions were stopped by the addition of 1 ml methanol. After removal of precipitate by centrifugation, an aliquot of the supernatant fraction (typically 30 μ) was monitored for the beta-lactam nucleus and phthalic acid by HPLC using a Zorbax C8 column (0.46×15 cm; MacMod Analytical Inc., Chadds Ford, Pa.). The two reaction products were eluted by a mobile phase constructed as continuous mixed gradients from (a) 1% ACN (acetonitrile)/0.2% TFA (trifluoroacetic acid) and (b) 80% ACN/0.2% TFA as follows: 1) 0% (b), 3 min; 2) 0-50% (b), 0.5 min; 3) 50-100% (b), 3 min; 4) 100% (b), 2.5 min; 5) 100-0% (b), 0.1 min; and 6) 0% (b), 5 min.
The effect of various agents on the enzymatic activity of phthalyl amidase was determined using standard conditions (see Example 5). All agents were tested at 1 mM final concentration unless otherwise indicated.

phthalyl amidase [2] = target: T1, phthalyl amidase; test: Substrate specificity: chemical structure requirements for enzyme activity; type: biochemical
Procedure: The activity of phthalyl amidase against 25 compounds was determined. The compounds were divided into beta-lactams (Table 9), phthalyl amides (Table 10), and aromatic ring substituted amides (Table 11). Each reaction mixture (1 ml total volume) contained 2.5 μmol of compound and 0.3 units of enzyme (based on the chromogenic substrate) of the preparative scale purified enzyme, in 50 mM phosphate buffer, pH 8.0. The reactions were conducted at 30° C. Samples of the reaction mixture were taken at various times, and methanol (equal volume) was added to stop the reaction. The samples were examined by HPLC to determine the extent of substrate hydrolysis. The amount of compound hydrolyzed was calculated from a standard curve of the test compound. All substrates were stable in buffer at 30° C. and pH 8.0 in the absence of enzyme for 24 hours.

[3] = agent at 1 mM final concentration, read-out: % of Control Activity
[4] = agent at 1 mM final concentration
[5] = read-out: % of Control Activity

remaining activity at 1000 µM (phthalyl amidase [1]; [3]): 100%
SMILES: O[C@H](CS)[C@H](O)CS (racemic) [DTT, dithiothreitol]

SMILES: Nc1ncnc2c1ncn2[C@@H]1O[C@H](COP(=O)(O)OP(=O)(O)OP(=O)(O)O)[C@@H](O)[C@H]1O [ATP, adenosine 5triphosphate]
remaining activity at 1000 µM (phthalyl amidase [1]; [3]): 96%

SMILES: [Ca+2].[Cl-].[Cl-] [CaCl2]
% of Control Activity (phthalyl amidase [1]; [4]): 89%

remaining activity at 1000 µM (phthalyl amidase [1]; [3]): 102%
SMILES: CC(C)(COP(=O)(O)OP(=O)(O)OC[C@H]1O[C@@H](n2cnc3c(N)ncnc32)[C@H](O)[C@@H]1OP(=O)(O)O)[C@@H](O)C(=O)NCCC(=O)NCCS [CoASH]

suitability as substrate (in words) (phthalyl amidase [2]; Tables 10 and 11): acceptable
SMILES: CCCCCCC(C(=O)O)n1cnc(NC(=O)c2ncccc2C(=O)O)c1 (stereo not drawn) [Compound XX]

SMILES: [Cl][Cu][Cl] [CuCl2]
effect on enzyme activity (in words) (phthalyl amidase [1]; 1 mM unless otherwise indicated, iodoacetic acid 10 mM, listed as Cu^++): significantly inhibited
effect on enzyme activity (in words) (phthalyl amidase [1]; 1 mM unless otherwise indicated, iodoacetic acid 10 mM, listed as copper ions): significantly reduced
% of Control Activity (phthalyl amidase [1]; [4]): 36%

SMILES: C[S+](C)[O-] [DMSO, dimethyl sulfoxide]
remaining activity at 1 % (phthalyl amidase [1]; solvent 1.0%): 101%
remaining activity at 5 % (phthalyl amidase [1]; solvent 5.0%): 80%
remaining activity at 10 % (phthalyl amidase [1]; solvent 10.0%): 71%

SMILES: O=C(O)c1cc(SSc2ccc([N+](=O)[O-])c(C(=O)O)c2)ccc1[N+](=O)[O-] [DTNB, dithionitrobenzoate]
remaining activity at 1000 µM (phthalyl amidase [1]; [3]): 98%

SMILES: O=C(O)CN(CCN(CC(=O)O)CC(=O)O)CC(=O)O [EDTA]
effect on enzyme activity (in words) (phthalyl amidase [1]): little or no effect
remaining activity at 1000 µM (phthalyl amidase [1]; [5]): 103%

SMILES: CCO [Ethanol]
remaining activity at 1 % (phthalyl amidase [1]): 99%
remaining activity at 5 % (phthalyl amidase [1]): 85%
remaining activity at 10 % (phthalyl amidase [1]): 45%

SMILES: Cc1cc2nc3c(=O)[nH]c(=O)nc-3n(C[C@H](O)[C@H](O)[C@H](O)COP(=O)(O)OP(=O)(O)OC[C@H]3O[C@@H](n4cnc5c(N)ncnc54)[C@H](O)[C@@H]3O)c2cc1C [FAD, flavin adenine dinucleotide]
remaining activity at 1000 µM (phthalyl amidase [1]; [3]): 101%

SMILES: [Cl][Fe]([Cl])[Cl] [FeCl3]
% of Control Activity (phthalyl amidase [1]; [4]): 96%

remaining activity at 1 % (phthalyl amidase [1]; solvent 1.0%): 100%
remaining activity at 5 % (phthalyl amidase [1]; solvent 5.0%): 94%
remaining activity at 10 % (phthalyl amidase [1]; solvent 10.0%): 85%
% Residual enzyme activity (phthalyl amidase [1]; solvent 10.0%): least amount of inhibition
SMILES: OCC(O)CO [Glycerol]

Relative Activity (phthalyl amidase [2]; Table 9 beta-lactams, III = 100, 2.5 μmol compound, 0.3 units enzyme, 50 mM phosphate pH 8.0, 30° C.): 0
SMILES: O=C(O)CN1C(=O)C(NC(=O)COc2ccccc2)C1CCc1ccco1 (stereo not drawn) [IV]

SMILES: O=C(O)CI [Iodoacetate]
effect on enzyme activity (in words) (phthalyl amidase [1]): significantly reduced; also recorded: significantly inhibited
remaining activity at 1000 µM (phthalyl amidase [1]; [5]): 91%
remaining activity at 10000 µM (phthalyl amidase [1]; [5]): 46%

SMILES: [Cl-].[K+] [KCl]
% of Control Activity (phthalyl amidase [1]; [4]): 100%

remaining activity at 1000 µM (phthalyl amidase [1]; [3]): 105%
SMILES: OCCS [Mercaptoethanol]

SMILES: CO [Methanol]
remaining activity at 1 % (phthalyl amidase [1]; solvent 1.0%): 100%
remaining activity at 5 % (phthalyl amidase [1]; solvent 5.0%): 90%
remaining activity at 10 % (phthalyl amidase [1]; solvent 10.0%): 69%

SMILES: [Cl][Mn][Cl] [MnCl2]
% of Control Activity (phthalyl amidase [1]; [4]): 84%

SMILES: NC(=O)c1ccc[n+]([C@@H]2O[C@H](COP(=O)([O-])OP(=O)(O)OC[C@H]3O[C@@H](n4cnc5c(N)ncnc54)[C@H](O)[C@@H]3O)[C@@H](O)[C@H]2O)c1 [NAD, nicotinamide adenine nucleotide]
remaining activity at 1000 µM (phthalyl amidase [1]; [3]): 101%

remaining activity at 1000 µM (phthalyl amidase [1]; [3]): 96%
SMILES: NC(=O)C1=CN([C@@H]2O[C@H](COP(=O)(O)OP(=O)(O)OC[C@H]3O[C@@H](n4cnc5c(N)ncnc54)[C@H](O)[C@@H]3O)[C@@H](O)[C@H]2O)C=CC1 [NADH]

SMILES: NC(=O)c1ccc[n+]([C@@H]2O[C@H](COP(=O)([O-])OP(=O)(O)OC[C@H]3O[C@@H](n4cnc5c(N)ncnc54)[C@H](OP(=O)(O)O)[C@@H]3O)[C@@H](O)[C@H]2O)c1 [NADP, nicotinamide adenine dinucleotide phosphate]
remaining activity at 1000 µM (phthalyl amidase [1]; [3]): 99%
